In patent US11447529B2, “Microcin MccY, and preparation method and use thereof” (South China Agricultural University, priority 2021, dated 2022):

Experiments:
Assay in all cases: Bacteriostatic ring test on double-layer agar
Assay type in all cases: cell-based
[1] = tested on: Salmonella enteritidis (strain name: CVCC3377); conditions: 50 μL filtrate (combination 25 uL + 25 uL), double-layer LB agar, 37° C., 18 h; FIG. 1
Method: (§1) Salmonella Pullorum (strain name: CVCC1800), Salmonella enteritidis (strain name: CVCC3377) and Salmonella typhimurium (strain name: ATCC14028) were respectively resuscitated in a LB agar plate (with the formula as shown in Table 4) (cultured in a 5% CO2 incubator at 37° C. for 16 h). Single colonies were picked and subjected to shaking culture until OD600=0.8. The bacterial solution was inoculated into a soft agar medium containing 5% LB (with the formula as shown in Table 5) at about 42° C. in a proportion of 1:1,000, and then spread onto a LB agar plate to form an upper and lower double-layer agar medium. 30 min later, after the soft agar was cooled and solidified, a mixed solution of 50 μL of the filtrate obtained in Example 1 (the Microcin MccY), 50 μL of the filtrate obtained in Example 2, 50 μL of the filtrate obtained in Example 3 (the Microcin MccJ25), 25 uL of the filtrate obtained in Example 1 (the Microcin MccY) and 25 uL of the filtrate obtained in Example 3 (the Microcin MccJ25) was taken and added into the upper and lower double-layer agar medium containing Salmonella Pullorum, Salmonella enteritidis and Salmonella typhimurium. The upper and lower double-layer agar medium was then placed into a 5% CO2 bacterial incubator at 37° C. for static culture for 18 h, and then observed for a bacteriostatic ring.

[2] = tested on: Salmonella london (strain name: CVCC2206); conditions: 50 μL filtrate (combination 25 uL + 25 uL), double-layer LB agar, 37° C., 18 h; FIG. 2
Method: (§2) Salmonella kentucky (strain name: BNCC239114), Salmonella Infantis (strain name: CMCC50041) and Salmonella london (strain name: CVCC2206) were respectively resuscitated in a LB agar plate (with the formula as shown in Table 4) (cultured in a 5% CO2 incubator at 37° C. for 16 h). Single colonies were picked and subjected to shaking culture until OD600=0.8. The bacterial solution was inoculated into a soft agar medium containing 5% LB (with the formula as shown in Table 5) at about 42° C. in a proportion of 1:1,000, and then spread onto a LB agar plate to form an upper and lower double-layer agar medium. 30 min later, after the soft agar was cooled and solidified, a mixed solution of 50 μL of the filtrate obtained in Example 1 (the Microcin MccY), 50 μL of the filtrate obtained in Example 2, 50 μL of the filtrate obtained in Example 3 (the Microcin MccJ25), 25 uL of the filtrate obtained in Example 1 (the Microcin MccY) and 25 uL of the filtrate obtained in Example 3 (the Microcin MccJ25) was taken and added into the upper and lower double-layer agar medium containing […]. The upper and lower double-layer agar medium was then placed into a 5% CO2 bacterial incubator at 37° C. for static culture for 18 h, and then observed for a bacteriostatic ring.

[3] = tested on: Salmonella kentucky (strain name: BNCC239114); conditions: 50 μL filtrate (combination 25 uL + 25 uL), double-layer LB agar, 37° C., 18 h; FIG. 2
Method: as §2

[4] = tested on: Salmonella Infantis (strain name: CMCC50041); conditions: 50 μL filtrate (combination 25 uL + 25 uL), double-layer LB agar, 37° C., 18 h; FIG. 2
Method: as §2

[5] = tested on: Salmonella Pullorum (strain name: CVCC1800); conditions: 50 μL filtrate (combination 25 uL + 25 uL), double-layer LB agar, 37° C., 18 h; FIG. 1
Method: as §1

[6] = tested on: Salmonella typhimurium (strain name: ATCC14028); conditions: 50 μL filtrate (combination 25 uL + 25 uL), double-layer LB agar, 37° C., 18 h; FIG. 1
Method: as §1

[7] = tested on: Shigella sonnei (strain name: CMCC51592); conditions: 50 μL filtrate, double-layer LB agar, 37° C., 18 h; FIG. 3
Method: (§3) Shigella flexneri (strain name: CMCC51572) and Shigella sonnei (strain name: CMCC51592) were respectively resuscitated in a LB agar plate (with the formula as shown in Table 4) (cultured in a 5% CO2 incubator at 37° C. for 16 h). Single colonies were picked and subjected to shaking culture until OD600=0.8. The bacterial solution was inoculated into a soft agar medium containing 5% LB (with the formula as shown in Table 5) at about 42° C. in a proportion of 1:1,000, and then spread onto a LB agar plate to form an upper and lower double-layer agar medium. 30 min later, after the soft agar was cooled and solidified, each 50 μL of the filtrate obtained in Example 1 (the Microcin MccY) and methanol were respectively taken and added into the upper and lower double-layer agar medium containing Shigella flexneri and Shigella sonnei (the control group was added with the same amount of the filtrate obtained in Example 2). The upper and lower double-layer agar medium was then placed into a 5% CO2 bacterial incubator at 37° C. for static culture for 18 h, and then observed for a bacteriostatic ring.

[8] = tested on: Shigella flexneri (strain name: CMCC51572); conditions: 50 μL filtrate, double-layer LB agar, 37° C., 18 h; FIG. 3
Method: as §3

Row | Substance | bacteriostatic effect (bacteriostatic ring) against Salmonella enteritidis [1] | bacteriostatic effect (bacteriostatic ring) against Salmonella london [2] | bacteriostatic effect (bacteriostatic ring) against Salmonella kentucky [3] | bacteriostatic effect (bacteriostatic ring) against Salmonella Infantis [4] | bacteriostatic effect (bacteriostatic ring) against Salmonella Pullorum [5] | bacteriostatic effect (bacteriostatic ring) against Salmonella typhimurium [6] | bacteriostatic effect (bacteriostatic ring) against Shigella sonnei [7] | bacteriostatic effect (bacteriostatic ring) against Shigella flexneri [8]
1 | MccJ25: Known Microcin MccJ25 (SEQ ID NO.10); tested as filtrate expressed by pET-28a(+)-MccJ25-containing BL21(DE3) bacteria (GGAGHVPEYFVGIGTPISFYG; Primer) [reference compound] | inhibitory effect | no inhibitory effect | no inhibitory effect | no inhibitory effect | – | – | – | –
2 | MccY: Microcin with amino acid sequence GGRGHIAEYFSGPITQVSFYG (SEQ ID NO.1); tested as filtrate expressed by pET-28a(+)-MccY-containing BL21(DE3) bacteria (Primer) | – | inhibitory effects | inhibitory effects | inhibitory effects | inhibitory effects | inhibitory effects | sensitive | not sensitive
